These are literature values, as cited in patent publication US20230287038A1, “PURIFIED SAPONINS AND CHROMATOGRAPHIC PROCESS FOR PURIFICATION OF SAME” (ACCESS TO ADVANCED HEALTH INSTITUTE, priority 2020, published 2023).

For series [1] the following is noted: reversed-phase chromatography fractions of saponin extract.
Series [2] has as its system antigens bovine serum albumin and cytochrome b5. As to conditions: mice.
For series [3] the following is noted: aqueous solution.
The test system of series [4] is unconjugated bacterial polysaccharides. Conditions: including unconjugated bacterial polysaccharides.

For the substance QS-21, the adjuvant activity result in series [1] is listed as “identified with adjuvant activity”. Moreover, in series [2], the “antibody response to bovine serum albumin and cytochrome b5” value is “stimulate potent antibody responses”. Further, the “pH at which hydrolysis of the fatty acyl ester bond (de-acylation) is minimized” value in series [3] is roughly 5.5. Moreover, the “antibody response to T-independent antigens” value in series [4] is “enhance antibody responses”.

Turning to QS-17, the adjuvant activity entry in series [1] is on record as “identified with adjuvant activity”. Besides, the “antibody response to bovine serum albumin and cytochrome b5” value in series [2] is “stimulate potent antibody responses”.

QS-18: the adjuvant activity result in series [1] is given as “identified with adjuvant activity”. The “antibody response to bovine serum albumin and cytochrome b5” value in series [2] is on record as “stimulate potent antibody responses”.
